Among the data in paper PMC6300691, “Enhancement of Heat Stability and Kinetic Parameters of the Maize Endosperm ADP-Glucose Pyrophosphorylase by Mutagenesis of Amino Acids in the Small Subunit With High B Factors” (Frontiers in Plant Science, 2018) are Km values, retold here.

Common to all, as to type: biochemical
One experiment concerns the target T1, L404E (Zea mays, UniProt P55241+Q947C0, L404E).
T1 construct: BT2 variant with wild type SH2, E. coli, purified
Kind of experiment: Initial-rate assay (PPi formation coupled to NADH oxidation) with varied ATP (0.05-3.0 mM) at 2.0 mM G-1-P, 2.5 mM 3-PGA, 15 mM MgCl2, 50 mM HEPES pH 7.4, hyperbolic fit. Particulars: read-out: KM ATP. An excerpt: (§1) All saturation plots were hyperbolic. No cooperative effects were seen.

A further experiment has as its target T2, L404H (Zea mays, UniProt P55241+Q947C0, L404H).
T2 construct: BT2 variant with wild type SH2, E. coli, purified
The experiment is described as above. Particulars: read-out: KM ATP.
Description: as §1

The target of the next experiment is T3, R331K (Zea mays, UniProt P55241+Q947C0, R331K).
T3 construct: BT2 variant with wild type SH2, E. coli, purified
T3 sequence (Q947C0 1-475 R331K): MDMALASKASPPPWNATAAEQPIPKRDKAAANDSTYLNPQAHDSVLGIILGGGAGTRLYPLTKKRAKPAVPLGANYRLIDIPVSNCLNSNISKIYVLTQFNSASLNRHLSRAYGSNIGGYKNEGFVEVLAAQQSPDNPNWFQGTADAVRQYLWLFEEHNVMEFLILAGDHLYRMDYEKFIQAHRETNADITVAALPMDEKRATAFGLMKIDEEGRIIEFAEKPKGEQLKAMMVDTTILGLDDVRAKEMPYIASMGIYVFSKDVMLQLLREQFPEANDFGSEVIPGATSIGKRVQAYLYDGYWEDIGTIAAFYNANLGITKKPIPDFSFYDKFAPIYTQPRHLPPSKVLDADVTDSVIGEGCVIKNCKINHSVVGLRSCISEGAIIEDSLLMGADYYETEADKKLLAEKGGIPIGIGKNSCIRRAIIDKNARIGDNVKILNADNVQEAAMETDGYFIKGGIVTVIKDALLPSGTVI
T3 sequence (P55241 46-516): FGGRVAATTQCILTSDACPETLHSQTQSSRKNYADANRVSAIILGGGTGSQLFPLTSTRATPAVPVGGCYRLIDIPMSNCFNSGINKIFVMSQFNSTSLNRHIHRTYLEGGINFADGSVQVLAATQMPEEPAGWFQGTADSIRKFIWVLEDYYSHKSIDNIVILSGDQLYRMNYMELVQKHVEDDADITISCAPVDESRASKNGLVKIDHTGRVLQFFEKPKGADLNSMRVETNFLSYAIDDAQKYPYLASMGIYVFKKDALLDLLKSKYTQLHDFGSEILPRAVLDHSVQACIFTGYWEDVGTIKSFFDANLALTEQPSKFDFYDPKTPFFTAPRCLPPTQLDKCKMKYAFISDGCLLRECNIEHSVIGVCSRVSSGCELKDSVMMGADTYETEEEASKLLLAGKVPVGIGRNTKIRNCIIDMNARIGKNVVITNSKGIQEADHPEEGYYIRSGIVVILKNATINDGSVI
Described as above. The settings on record: read-out: KM ATP.
Description: as §1

In the next experiment the target is T4, D242H (Zea mays, UniProt P55241+Q947C0, D242H).
T4 construct: BT2 variant with wild type SH2, E. coli, purified
T4 sequence (Q947C0 1-475 D242H): as the sequence (Q947C0 1-475 R331K) above, with D242H, K331R counted along it
T4 sequence (P55241 46-516): as the sequence (P55241 46-516) above
The description is as above. Particulars: read-out: KM ATP.
Description: as §1

In the next experiment the target is T5, E123Q (Zea mays, UniProt P55241+Q947C0, E123Q).
T5 construct: BT2 variant with wild type SH2, E. coli, purified
T5 sequence (Q947C0 1-475 E123Q): as the sequence (Q947C0 1-475 R331K) above, with E123Q, K331R counted along it
T5 sequence (P55241 46-516): as the sequence (P55241 46-516) above
The experiment is described as above. Particulars: read-out: KM ATP.
Description: as §1

In a further experiment the target is T6, K402R (Zea mays, UniProt P55241+Q947C0, K402R).
T6 construct: BT2 variant with wild type SH2, E. coli, purified
T6 sequence (Q947C0 1-475 K402R): as the sequence (Q947C0 1-475 R331K) above, with K331R, K402R counted along it
T6 sequence (P55241 46-516): as the sequence (P55241 46-516) above
Described as above. Particulars: read-out: KM ATP.
Description: as §1

A further experiment addresses T7, K403L (Zea mays, UniProt P55241+Q947C0, K403L).
T7 construct: BT2 variant with wild type SH2, E. coli, purified
The description is as above. The settings on record: read-out: KM ATP.
Description: as §1

A further experiment has as its target T8, E123G, R331K (Zea mays, UniProt P55241+Q947C0, E123G/R331K).
T8 construct: BT2 variant with wild type SH2, E. coli, purified
Described as above. Particulars: read-out: KM ATP.
Description: as §1

The target of another experiment is T9, SH2-ISM (Zea mays, UniProt P55241+Q947C0, Q96G/D161G/A443R).
T9 construct: SH2-ISM with wild type BT2 (SH2-ISM/BT2-WT), E. coli, purified
T9 sequence (Q947C0 1-475): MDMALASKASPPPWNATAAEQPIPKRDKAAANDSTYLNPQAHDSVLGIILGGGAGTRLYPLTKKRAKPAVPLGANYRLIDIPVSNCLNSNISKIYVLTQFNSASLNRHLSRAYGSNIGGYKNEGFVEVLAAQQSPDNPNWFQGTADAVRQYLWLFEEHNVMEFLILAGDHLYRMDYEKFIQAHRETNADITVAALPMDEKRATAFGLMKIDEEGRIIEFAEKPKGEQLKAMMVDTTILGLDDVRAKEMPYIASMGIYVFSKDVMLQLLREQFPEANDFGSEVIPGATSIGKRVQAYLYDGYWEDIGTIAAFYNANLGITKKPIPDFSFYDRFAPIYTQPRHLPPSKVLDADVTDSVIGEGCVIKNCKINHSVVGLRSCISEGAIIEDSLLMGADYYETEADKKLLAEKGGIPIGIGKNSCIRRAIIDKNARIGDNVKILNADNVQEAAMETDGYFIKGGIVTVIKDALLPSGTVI
T9 sequence (P55241 46-516 Q96G/D161G/A443R): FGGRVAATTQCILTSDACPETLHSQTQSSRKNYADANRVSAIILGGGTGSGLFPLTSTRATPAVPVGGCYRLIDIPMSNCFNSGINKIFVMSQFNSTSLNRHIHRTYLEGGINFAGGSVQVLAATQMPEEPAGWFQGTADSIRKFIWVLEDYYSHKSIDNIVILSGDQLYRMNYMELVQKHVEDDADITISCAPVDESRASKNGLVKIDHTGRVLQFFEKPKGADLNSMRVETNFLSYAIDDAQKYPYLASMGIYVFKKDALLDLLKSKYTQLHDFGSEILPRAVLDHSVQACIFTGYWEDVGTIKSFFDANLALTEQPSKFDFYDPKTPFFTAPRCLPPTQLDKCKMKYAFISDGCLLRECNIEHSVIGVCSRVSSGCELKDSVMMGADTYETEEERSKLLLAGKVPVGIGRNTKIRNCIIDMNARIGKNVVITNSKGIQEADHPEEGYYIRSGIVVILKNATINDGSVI
Kind of experiment: Initial-rate assay without 3-PGA, ATP and G-1-P both varied (0.01-10 mM and 0.1-25 mM), global fit to a sequential mechanism. Particulars: read-out: ATP Km (absence of 3-PGA). The text has this:
(§2) Activity in the absence of the activator 3PGA was examined. While 3PGA is a noted activator for plant AGPase, the mechanism of activation differs for the various AGPases. […] Thus, the term “activation fold” in the literature is merely an activity reported at single fixed substrate concentrations.
(§3) The small subunit mutant, MP, contains the first 198 amino acids of the small subunit of the maize endosperm enzyme and the last 277 amino acids from the potato tuber enzyme resulting in thirty-three amino acid sites that differ from the maize endosperm enzyme ([Cross et al., 2004]).

In the next experiment the target is T10, SH2-E/BT2-BF (Zea mays, UniProt P55241+Q947C0, E123G/N131R/T142F/A160T/Q261S/R331K/A396S/K402R/V416I/C424V/S444A).
T10 construct: SH2-E co-expressed with BT2-BF, E. coli, purified
T10 sequence (Q947C0 1-475 E123G/R331K/K402R): T9 sequence (Q947C0 1-475) with E123G, R331K, K402R
T10 sequence (P55241 46-516 N131R/T142F/A160T/Q261S/A396S/V416I/C424V/S444A): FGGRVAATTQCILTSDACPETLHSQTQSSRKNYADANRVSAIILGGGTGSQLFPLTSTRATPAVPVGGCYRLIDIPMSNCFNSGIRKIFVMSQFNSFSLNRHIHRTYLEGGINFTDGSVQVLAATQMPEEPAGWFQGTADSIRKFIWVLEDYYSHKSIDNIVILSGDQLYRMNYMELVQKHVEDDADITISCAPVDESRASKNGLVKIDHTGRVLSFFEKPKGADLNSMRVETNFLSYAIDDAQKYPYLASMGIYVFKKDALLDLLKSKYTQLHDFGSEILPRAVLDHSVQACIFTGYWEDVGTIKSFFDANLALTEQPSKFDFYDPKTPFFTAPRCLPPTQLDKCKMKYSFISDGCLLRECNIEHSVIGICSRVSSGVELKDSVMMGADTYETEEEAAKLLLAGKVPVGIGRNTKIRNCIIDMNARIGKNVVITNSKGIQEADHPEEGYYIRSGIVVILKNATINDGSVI
The description is as above. Particulars: read-out: ATP Km (absence of 3-PGA).
Description: as §2, §3

The next experiment has as its system T11, MP + SH2-E.
T11 construct: chimeric small subunit MP (maize 198 / potato 277 amino acids) with SH2-E
Described as above. Particulars: read-out: ATP Km (absence of 3-PGA).
Description: as §2, §3

Substitutions are numbered along the chain they refer to.

T1 sequence (Q947C0 1-475 L404E): as the sequence (Q947C0 1-475 R331K) above, with K331R, L404E counted along it
T1 sequence (P55241 46-516, stated change not applied): as the sequence (P55241 46-516) above
T7 sequence (Q947C0 1-475 K403L): as the sequence (Q947C0 1-475 R331K) above, with K331R, K403L counted along it
T7 sequence (P55241 46-516): as the sequence (P55241 46-516) above
T2 sequence (Q947C0 1-475 L404H): as the sequence (Q947C0 1-475 R331K) above, with K331R, L404H counted along it
T2 sequence (P55241 46-516, stated change not applied): as the sequence (P55241 46-516) above
T8 sequence (Q947C0 1-475 E123G/R331K): as the sequence (Q947C0 1-475 R331K) above, with E123G counted along it
T8 sequence (P55241 46-516): as the sequence (P55241 46-516) above

For `Nc1ncnc2c1ncn2[C@@H]1O[C@H](COP(=O)(O)OP(=O)(O)OP(=O)(O)O)[C@@H](O)[C@H]1O` [ATP, adenosine 5'-triphosphate], the Michaelis-Menten constant (Km) on L404E was determined as 135 ± 47 µM; at L404H, 132 ± 22 µM; on R331K, 88 ± 13 µM; at D242H, 110 ± 16 µM; on E123Q it was 52 ± 6 µM; on K402R, 79 ± 15 µM. For the same compound, the Michaelis constant (Km) at K403L turned out to be 82 ± 17 µM; on E123G, R331K it was 80 ± 5 µM; on SH2-ISM, 100 ± 48 µM; at SH2-E/BT2-BF, 2410 ± 350 µM; in the experiment on MP + SH2-E, 320 ± 21 µM.

For orientation: Km means the substrate concentration at which the rate is half of its maximum.
